Several values for one entry are separate records, joined by “and”; a condition that tells them apart may be missing. Identical values can stand only once.
Assays:
[1] = Octanol-Water Partition Coefficient of HOBr (Example 13); type: physicochemical
Procedure: In order to quantify the lipophilicity of HOBr solutions prepared from NaOCl-activated HBr, the Octanol-Water Partition Coefficient was determined.
The Octanol-Water Partition Coefficient is defined as:
Pow=Octanol-Water Partition Coefficient. Commonly the logarithm of this number is reported as Log Pow
A high concentration of a HOBr solution was prepared by introducing sufficient NaOCl to activate 3.34 ml 48% HBr in 900 ml RO water until the pH was 7.23. By iodometric titration, the solution was determined to contain 5625 ppm as Br2. The slightly yellow activated solution (25 ml) was poured into an Erlenmeyer flask containing octanol (25 ml). This was mixed for two minutes using a high-speed magnetic stirrer after which the two phases were allowed to separate. All of the yellow color had phase-separated into the top octanol layer. […] The Pow was calculated to be 1.97. This was repeated for lower concentrations of HOBr by preparing a stock solution of 300 ppm as Br2 using 0.2 ml 48% HBr in 900 ml RO water and adding sufficient NaOCl bleach until the pH was 7.33. From the 300 ppm as Br2 stock solution, solutions of 200 and 100 ppm as Br2 were prepared.
A saturated solution of DBDMH was prepared by slurrying DBDMH (1 g) powder in RO water (99 g) and stirring rapidly for 20 minutes. Undissolved solids were removed by gravity filtration. By iodometric titration, the solution was determined to contain 1170 ppm as Br2. The DBDMH solution (25 ml) was poured into an Erlenmeyer flask containing octanol (25 ml). This was mixed for two minutes using a high-speed magnetic stirrer after which the two phases were allowed to separate. […] The Pow was calculated to be 0.808. The 1170 ppm as Br2 stock solution was then used to prepare solution of 300, 200 and 100 ppm as Br2 solutions.

E. coli O157:H7 [2] = experiment: Surface-associated bacteria remaining on beef and pork after 30 second spray (Example 9); type: cell-based; conditions: for log10 (remaining): 30 second spray 50 psi, DBDMH 288 ppm Br2, NaOCl/HBr 279 ppm Br2; for % reduction / log10 reduction: vs city water control
Text: (§1) The microbiological efficacy of the HOBr derived from NaOCl/HBr and the HOBr from DBDMH were compared against a culture of E. coli O157:H7 bacteria that was sprayed onto the surface of beef and pork meat.
(§2) Meat processing facilities commonly treat beef and pork with antimicrobial solutions for about 30 seconds by spraying the beef and pork carcasses and trim with the solution in a spray cabinet. To simulate this process, a small spray cabinet was constructed for the study. A 30-gallon, open-headed drum was equipped with three ½ inch PVC section of pipe that were vertically oriented and positioned 120 degrees apart. Each section of pipe had two spay nozzles four inches apart positioned to form a spray zone in the center of the drum. An air-assisted diaphragm pump was used to deliver the test solution into the three ½ inch PVC pipe sections and through the nozzles. A regulator on the air pump was used to adjust the pressure of the spray as necessary.
(§3) A stock solution of a field strain of E. coli O157:H7 was incubated at 35° C. for four days in Sigma Nutrient Broth for microbial culture. Three daily, consecutive transfers of the inoculums were made to ensure that a sufficient concentration of E. coli O157:H7 was available for the study. The broth and bacteria mixture was then centrifuged leaving the E. coli O157:H7 to be re-suspended in approximately 500 ml Butterfield's Buffer. The E. coli O157:H7 buffer solution was serially diluted and plated on 3M Petrifilm E. coli plates, incubated at 35° C. for 48 hours where it was determined that the E. coli O157:H7 population was 6.76×10^7 CFU/ml or log10 7.83.
The type of beef used was chuck roast, which was cut into nine equal pieces. The average weight of beef piece used in this portion of the study was 257.1 g. Nine boneless pork chops of average weight of pork 142.9 g were used.
(§4) In summary: • Beef— • a) Control: Three beef pieces—city water • b) DBDMH: Three beef pieces—288 ppm Br2 • c) NaOCl/HBr: Three beef pieces—279 ppm Br2 • Pork— • a) Control: Three pork pieces—city water • b) DBDMH: Three pork pieces—288 ppm Br2 • c) NaOCl/HBr: Three pork pieces—279 ppm Br2
(§5) During the 30 second spray, a piece of meat was held by a hook and moved up and down in the spray zone of the spray cabinet with rotation to ensure even distribution of the solution over the surface. The spray pressure was set at 50 psi.
After spraying, each meat piece was gently shaken three times to remove excess liquid and returned to a new, sterile bag containing 200 g of city water. The bag was sealed and then vigorously agitated manually for one minute to dislodge any viable surface-associated bacteria from the meat and into the aqueous phase. The water was then plated using 3M Petrifilm E. coli plates and incubated at 35° C. for 48 hours, after which the plates were enumerated. All plating for E. coli was performed within five minutes of completing the spray.

[3] = test system: Salmonella typhimurium (ATCC 14028); experiment: Surface-associated bacteria remaining on chicken after 40 minute chilled immersion (Example 11); type: cell-based; conditions: chicken halves
Procedure: Most poultry processing facilities cool the product by submerging it for 30-60 minutes in a chiller tank containing an antimicrobial chemical. The chilled water solution is typically around 35° F. (Food Contact Notification, nos. 334 and 453). Therefore, the microbiological efficacy of the HOBr derived from NaOCl-activated HBr and the HOBr from DBDMH were compared by immersing chickens inoculated with a culture of Salmonella typhimurium (ATCC 14028) bacteria. An inoculum was prepared in the same manner as described in Example 10. This time the inoculum yielded a Salmonella typhimurium population of 3.78×10^8 CFU/ml, or log10 8.58. This was then sprayed onto both sides of the chicken halves and left to marinate for two hours. The average weight of the whole chicken used in this portion of the study was 5.20 lbs.
Each test solution was made with chilled water immediately prior to use. For each test solution and the control, two chicken halves were placed in a plastic storage bin containing one quart of test solution. A sterilized ice pack was placed in the bin to accompany the chicken and maintain water temperature. The chicken halves were allowed to sit in the chilled solution for 40 minutes at 35° F., and were turned every five minutes while gently agitating the storage bin. All containers were covered using aluminum foil to prevent degradation of the active ingredients by UV light.
In summary: • a) Control: Two chicken halves—city water • b) DBDMH: Two chicken halves—95 ppm as total bromine • c) NaOCl/HBr: Two chicken halves—100 ppm as total bromine
After spraying, each chicken half was gently shaken three times to remove excess liquid and returned to a new, sterile bag. 300 g of city water was introduced to the bag and the bag was tumbled vigorously for one minute to dislodge viable surface-associated Salmonella bacteria. The water left at the bottom of the bag was plated using 3M Petrifilm Enterobacteriaceae Plates and incubated at 35° C. for 24 hours, upon which the plates were enumerated.

E. coli O157:H7 [4] = experiment: Microbiological quality of wash water after spraying inoculated beef and pork (Example 9); type: cell-based; conditions: for log10 (remaining): 30 second spray 50 psi; for log10 reduction: vs city water control
Text: as §1, §2, §3, §4, §5
Immediately after each piece was sprayed, a sample of the wash solution was taken from the bottom of the spray cabinet drum for microbial analysis. The solutions were plated on 3M Petrifilm E. coli plates and incubated at 35° C. for 48 hours.

[5] = test system: Salmonella typhimurium (ATCC 14028); experiment: Surface-associated bacteria remaining on chicken after 30 second spray (Example 10); type: cell-based; conditions: chicken halves
Text: In the processing of poultry, birds that are deemed by the USDA inspectors to have undesirable levels of fecal contamination are directed to a dedicated cabinet where they are sprayed with an antimicrobial solution. If the fecal contamination were not removed, birds harboring the pathogenic Salmonella organism would enter the human food chain. Therefore, the microbiological efficacy of the HOBr derived from NaOCl/HBr and the HOBr from DBDMH were compared on chicken inoculated with a culture of Salmonella typhimurium (ATCC 14028) bacteria.
A stock solution of Salmonella typhimurium (ATCC 14028) was incubated at 35° C. for four days in Sigma Nutrient Broth for microbial culture. Three daily, consecutive transfers of the inoculums were made to ensure that a sufficient concentration of Salmonella typhimurium was available for the study. The broth and bacteria mixture was then centrifuged leaving the Salmonella typhimurium to be re-suspended in approximately 500 ml Butterfield's Buffer. The Salmonella buffer solution was serially diluted and plated on 3M Petrifilm Enterobacteriaceae Plates, incubated at 35° C. for 24 hours where it was determined that the Salmonella typhimurium population was 2.34×10^8 or log10 8.37 CFU/ml (colony forming units per milliliter).
Three whole, uncooked chickens were purchased from a local grocer. The average weight of the whole chickens was 5.30 pounds. The organs were removed from each chicken and subsequently, each chicken was cut evenly in half down the back leaving six equal halves which contained a back, breast, thigh and leg. The chicken halves were then patted dry with a paper towel, sprayed liberally on all sides and marinated with Salmonella typhimurium—Butterfield's Buffer solution inoculums for two hours, turning occasionally.
The six chicken pieces were introduced to the spray cabinet used in Example 9. […] The concentration of HOBr was measured prior to spraying the meat pieces by using a HACH DR/700 Colorimeter and HACH 10 ml DPD Total Chlorine pillow packets. […]

[6] = Relative stability (decay) of HOBr from NaOCl-activated HBr vs DBDMH, 600 ppm as bromine (Example 4); type: physicochemical; conditions: HOBr 600 ppm as bromine; stored in the dark; 70-75° F.
Procedure: The relative stability of HOBr derived from NaOCl-activated HBr and HOBr derived from DBDMH was compared side-by-side. A solution of HOBr (600 ppm as bromine) was used in the comparison because this is the amount of bromine that typically exits the commercial DBDMH feeders when the solid product is dissolved. The activity of the solutions was measured using the DPD Total chlorine colorimetric method. Solutions were stored in the dark to prevent photodegradation due to UV light exposure. The temperature ranged from 70-75° F. for the duration of the test.
The HOBr decay profiles for the 600 ppm (as bromine) solutions derived from NaOCl-activated HBr solution and DBDMH solution are plotted in FIG. 2.
Graphs of ln(Co/Ct) where Co is the initial concentration of HOBr and Ct is the concentration at day t were close to straight lines for both the DBDMH and NaOCl-activated HBr derived solutions. (the regression analysis correlation coefficient, R^2 values were close to 1). The R^2 value for the DBDMH and the NaOCl-activated HBr solutions were 0.9251 and 0.9302, respectively. […]
The half-lives of HOBr from the HBr-activated solution and the DBDMH solution were calculated by […]—the natural logarithm (ln) of 2.

[7] = Concentration HOBr (as Br2) 100
[8] = Concentration HOBr (as Br2) 200
[9] = Concentration HOBr (as Br2) 300
[10] = Concentration HOBr (as Br2) 1170 (saturated solution)
[11] = immersion 40 minutes, vs city water control
[12] = 30 second spray, vs city water control

## CC1(C)C(=O)N(Br)C(=O)N1Br [DBDMH, 1,3-dibromo-5,5-dimethylhydantoin]
[1]; [7]
  Concentration in aqueous phase after partitioning into octanol: 19.125 ppm as Br2
  Pow HOBr: 0.645
[1]; [8]
  Concentration in aqueous phase after partitioning into octanol: 34.99 ppm as Br2
  Pow HOBr: 0.719
[1]; [9]
  Concentration in aqueous phase after partitioning into octanol: 50.74 ppm as Br2
  Pow HOBr: 0.731
[1]; [10]
  Concentration in aqueous phase after partitioning into octanol: 159.7 ppm as Br2 and 157.5 ppm as Br2
  Pow HOBr: 0.808
E. coli O157:H7 [2]; on beef, control 6.15
  log10 (remaining): 5.56 log10
E. coli O157:H7 [2]; on beef
  % reduction: 74.30%
  log10 reduction: 0.59 log10
E. coli O157:H7 [2]; on pork, control 6.43
  log10 (remaining): 5.71 log10
E. coli O157:H7 [2]; on pork
  % reduction: 80.95%
  log10 reduction: 0.72 log10
[3]; immersion 40 minutes at 35° F., DBDMH 95 ppm, NaOCl/HBr 100 ppm as total bromine, control 6.54
  log10 (remaining): 6.25 log10 CFU/ml
[3]; [11]
  % reduction: 48.71%
  log10 reduction: 0.29 log10 CFU/ml
E. coli O157:H7 [4]; beef, DBDMH 288 ppm Br2, NaOCl/HBr 279 ppm Br2, control 5.01
  log10 (remaining): 0.48 log10
E. coli O157:H7 [4]; beef
  log10 reduction: 4.53 log10
E. coli O157:H7 [4]; pork, DBDMH 288 ppm Br2, NaOCl/HBr 279 ppm Br2, control 5.18
  log10 (remaining): 0.99 log10
E. coli O157:H7 [4]; pork
  log10 reduction: 4.19 log10
[5]; 30 second spray 40 psi, DBDMH 295 ppm, NaOCl/HBr 275 ppm as total bromine, control 6.15
  log10 (remaining): 5.85 log10 CFU/ml
[5]; [12]
  % reduction: 49.88%
  log10 reduction: 0.30 log10 CFU/ml
[6]
  rate constant of HOBr decay: 0.051 day⁻¹

— US20110200685A1, “Methods and compositions for the reduction of pathogenic microorganisms from meat and poultry carcasses, trim and offal” (priority 2010, published 2011)
